Results as given in BindingDB's records for doi:10.1021/acs.jmedchem.2c01521 (Merck, 2023).

Target: cAMP and cAMP-inhibited cGMP 3',5'-cyclic phosphodiesterase 10A (Homo sapiens, UniProt Q9Y233)
Assay: Inhibition of human PDE10A2 transfected in human AD293 cells cytosolic fraction using cAMP as substrate by fluorescence polarization assay

Sequence of cAMP and cAMP-inhibited cGMP 3',5'-cyclic phosphodiesterase 10A (Q9Y233 whole entry): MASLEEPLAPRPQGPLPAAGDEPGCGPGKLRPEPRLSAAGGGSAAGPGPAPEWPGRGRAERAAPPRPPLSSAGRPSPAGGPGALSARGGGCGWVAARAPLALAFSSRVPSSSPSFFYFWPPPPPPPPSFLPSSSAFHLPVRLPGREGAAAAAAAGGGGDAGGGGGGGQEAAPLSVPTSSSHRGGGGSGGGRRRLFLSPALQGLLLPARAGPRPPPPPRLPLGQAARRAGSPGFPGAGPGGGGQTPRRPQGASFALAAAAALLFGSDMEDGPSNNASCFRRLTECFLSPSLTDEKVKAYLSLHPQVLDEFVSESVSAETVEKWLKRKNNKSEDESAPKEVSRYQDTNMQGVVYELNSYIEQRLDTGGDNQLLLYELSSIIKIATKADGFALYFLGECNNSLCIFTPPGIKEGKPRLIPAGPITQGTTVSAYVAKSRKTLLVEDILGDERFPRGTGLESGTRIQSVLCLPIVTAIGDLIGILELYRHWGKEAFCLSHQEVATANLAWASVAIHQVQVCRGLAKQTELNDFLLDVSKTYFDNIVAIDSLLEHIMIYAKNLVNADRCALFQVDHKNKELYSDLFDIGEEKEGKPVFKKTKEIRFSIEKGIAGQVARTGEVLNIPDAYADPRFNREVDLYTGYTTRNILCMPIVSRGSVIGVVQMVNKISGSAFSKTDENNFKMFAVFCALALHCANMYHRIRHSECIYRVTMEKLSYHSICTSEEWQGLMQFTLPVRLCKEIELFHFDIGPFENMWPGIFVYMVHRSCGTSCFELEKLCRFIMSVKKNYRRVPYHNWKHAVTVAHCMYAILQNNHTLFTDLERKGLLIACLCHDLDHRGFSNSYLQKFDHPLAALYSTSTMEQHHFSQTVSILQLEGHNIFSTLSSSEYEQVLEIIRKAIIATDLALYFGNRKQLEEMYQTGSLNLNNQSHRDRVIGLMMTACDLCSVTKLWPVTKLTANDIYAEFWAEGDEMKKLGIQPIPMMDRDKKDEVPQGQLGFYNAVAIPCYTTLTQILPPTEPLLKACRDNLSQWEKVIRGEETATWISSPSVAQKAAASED

Ki: 7.8 nM
Compound: Cc1cnc(OC[C@H]2C[C@@H]2c2ccccn2)cc1NCc1cnn(C)c1
